Measurements from patent US20230141777A1, “COMPOSITION WHICH IS FOR TREATING OR PREVENTING RENAL CELL CANCER AND CONTAINS D-ALLOSE AS ACTIVE INGREDIENT, AND METHOD FOR TREATING OR PREVENTING CANCER USING SAME” (NATIONAL UNIVERSITY CORPORATION KAGAWA UNIVERSITY, priority 2020, published 2023).
“Also recorded” adds a separate entry of the source.

How the values were obtained:
TXNIP [1] = assay: TXNIP expression (Western blotting) in Caki-1; assay type: cell-based, human; conditions: Caki-1, 10, 25 or 50 mM D-allose, 48 hours
Protocol: (§1) A human renal cell carcinoma cell line (Caki-1 or Caki-2) was seeded at 5.0×10^5 in a 100 mm dish and cultured for 24 hours, after which it was co-cultured with D-allose (10, 25 or 50 mM). After 48 hours, the cells were recovered and the protein was extracted, and the concentration of each protein was measured using a Bio-Rad Protein Assay Kit (Bio-Rad, Laboratories, Inc. USA). A protein sample ([…]) was electrophoresed on 10% Mini-PROTAN TGX Precast Gel (Bio-Rad) and a Trans-Blot Turbo transfer system (Bio-Rad) was used for transfer onto a PVDF Western Blotting Membrane. After blocking treatment for 1 hour (Superblock T20. Thermo, Rockford. Ill., USA), anti-TXNIP antibody (D5F3E, CST. USA. 1:1000) was used as primary antibody for reaction using an iBind Flex Western System (Thermo). The loading control used was β-actin (ab8227, abcam, CamBridge, UK, 1:1000).

[2] = Change in tumor D-allose concentration after intraperitoneal or oral administration of D-allose to renal cell carcinoma xenotransplantation mouse model (HPLC); assay type: in vivo; conditions: for D-allose detected in tumor: by 1 hour after oral administration
Protocol: (§2) The experiment was conducted using two different human renal cell carcinoma cell lines (Caki-1, ACHN). Each of the cells was cultured in a moist environment at 37° C., 5% CO2 using 10% fetal bovine serum and RPMI-1640 culture solution (2000 mg D-glucose/L) containing HEPES buffer and penicillin-streptomycin. The renal cell carcinoma xenotransplantation mouse model was prepared by adjusting cultured cells to a 1.0×10^5 cell/mL cell suspension with MEM culture solution, injecting 0.1 mL into the femoral subcutaneous tissue of Female athymic nude mice (BALB/c nu/nu, 6 weeks old), and confirming a tumor volume of 200 mm^3 or greater after 1 week, and it was used for the following experiment.
In a xenotransplantation mouse model of two different human renal cell carcinoma cell lines (Caki-1, ACHN), tumors were enucleated from the mice at the 1st hour, 2nd hour and 4th hour before and after administration of D-allose by intraperitoneal administration (FIGS. 1(A) and (B)) or oral administration (FIGS. 1(C) and (D)) of a solution of rare sugar D-allose prepared using physiological saline to 400 mg/kg/0.2 mL. The monosaccharides in the supernatant obtained by ultrasonic disruption of the tumors in 1 mL of PBS and centrifugal separation at 3000 rpm for 5 minutes were labeled with ABEE (4-aminobenzoic acid ethyl ester) and the D-allose was quantitatively analyzed by HPLC (high performance liquid chromatography) (FIG. 1).

[3] = Body weight and HE staining of kidney and liver tissue in renal cell carcinoma xenotransplantation mouse model after oral D-allose; assay type: in vivo
Protocol: (§3) A D-allose-containing solution was orally administered from day 1, where “day 0” was defined as the day when the tumor size of the renal cell carcinoma xenotransplantation mouse model prepared using Caki-1 as the human renal cell carcinoma cell line reached 200 mm^3 or greater.
(§4) Either 0.2 mL physiological saline or 0.2 mL physiological saline dissolving 400 mg/kg D-allose was injected into the esophagus of mice divided into 2 groups (control group and D-allose group), through a Neraton catheter. The administration was carried out once a day for a total of 32 consecutive days. The mouse body weights and the long and short diameters of the tumors were measured twice a week. The tumor volumes were calculated as: tumor long diameter×short diameter×short diameter×0.5. The livers and kidneys were extracted with the tumors from the mice on the 32nd day after the start of oral administration and used for the subsequent experiment.
(§5) The tumors, kidneys and livers were extracted from the renal cell carcinoma xenotransplantation mouse models (control group and D-allose-administered group, 32nd day after start of administration), and the tissues were fixed with 4% paraformaldehyde/phosphate buffer, embedded in paraffin and sliced to thicknesses of 4 μm. The thin slices were stained with hematoxylin-eosin staining (HE staining) and observed (FIG. 3, FIG. 5 and FIG. 6).

[4] = test system: human renal cell carcinoma cell line Caki-1 xenotransplantation mouse model; assay: Change in tumor volume and tumor histology in renal cell carcinoma xenotransplantation mouse model by oral administration of D-allose; assay type: in vivo; conditions: Caki-1 xenograft
Protocol: as §2, §3, §4, §5

[5] = test system: human renal cell carcinoma cell line ACHN; assay: Intracellular reactive oxygen species (ROS) production, DCF-DA fluorescence, ACHN; assay type: cell-based; conditions: 50 mM D-allose, co-culture 1 hour, vs DMSO
Protocol: (§6) After seeding human renal cell carcinoma cell line (Caki-1 or ACHN) at 5.0×10^5 in a 100 mm dish, culturing for 24 hours and then co-culturing with DMSO or D-allose (50 mM) for 1 hour, 10 μM 2,7-Dichlorofluorescin diacetate (DCF-DA; D6883, Sigma-Aldrich, USA) was added and the mixture was allowed to stand at 37° C. for 30 minutes. The cells were recovered with trypsin treatment and collected by centrifugal separation for 5 minutes at 3500×g, after which they were resuspended in ice-cold PBS and a CytoFLEX S (Beckman Coulter, CA, USA) was used to detect the DCF-DA fluorescence. Each experiment was conducted 3 times, and the data were analyzed using CytExpert software and recorded as the average value±SE (FIG. 8).

[6] = test system: human colorectal cancer cell line (DLD-1) xenotransplantation mice; assay: Change in tumor volume in colorectal cancer xenotransplantation mouse model by administration of D-allose; assay type: in vivo; conditions: DLD-1 xenograft, Mann-Whitney U test
Protocol: A cell suspension containing 2.0×10^6 cells of a human colorectal cancer cell line (DLD-1) was injected into femoral subcutaneous tissue of Male athymic nude mice (BALB/c Nude (nu/nu)mice), and adjustment of D-allose or D-glucose was initiated with “day 0” defined as the day when the tumor volume reached about 100 to 150 mm^3.
(§7) D-allose or D-glucose was intraperitoneally administered at 400 mg/kg to colorectal cancer xenotransplantation mice whose tumor volumes had reached about 100 mm^3. Physiological saline was used as the solvent for adjustment to 0.2 ml, and administration was once per day for a total of 30 days. The tumor volumes were measured every 6 days.
as §7, with “orally” for “intraperitoneally”, “100” for “400”, “100 to 150” for “100”, “Distilled water” for “Physiological saline”

[7] = test system: human renal cell carcinoma cell line Caki-1; assay: Intracellular reactive oxygen species (ROS) production, DCF-DA fluorescence, Caki-1; assay type: cell-based; conditions: Caki-1, 50 mM D-allose, co-culture 1 hour, vs DMSO
Protocol: as §6

TXNIP [8] = assay: TXNIP expression (Western blotting) in Caki-2; assay type: cell-based, human; conditions: Caki-2, 10, 25 or 50 mM D-allose, 48 hours
Protocol: as §1

## O=C[C@H](O)[C@H](O)[C@H](O)[C@H](O)CO [D-allose]
TXNIP [1]
  TXNIP expression: increases TXNIP expression in a D-allose dose-dependent manner
[2]; 400 mg/kg, Caki-1 and ACHN tumors (not distinguished)
  tumor D-allose concentration with oral administration relative to intraperitoneal administration: about 80%
[2]; ACHN tumors, 400 mg/kg
  D-allose detected in tumor: detected in all of the tumors
[2]; Caki-1 tumors, 400 mg/kg
  D-allose detected in tumor: detected in all of the tumors
[2]; Caki-1 tumors, oral administration, 400 mg/kg
  time of maximum intratumoral D-allose concentration: 1 h
[2]; transintestinal administration, summary statement
  uptake into renal cell carcinoma compared to non-transintestinal (intraperitoneal) administration: equivalent rate or with approximately about 20% reduction
[3]; oral 400 mg/kg once a day, 32-day observation period
  body weight compared to the control group: no significant difference
[3]; oral 400 mg/kg/day, 32nd day
  HE staining images of kidney tissue compared to the control group: No particular difference
  HE staining images of liver tissue compared to the control group: No particular difference
[4]; oral 400 mg/kg once a day for 32 days
  tumor volume at the 32nd day compared to tumor volume before D-allose administration: significantly reduced
[4]; oral 400 mg/kg once a day, after the 8th day, Mann-Whitney U test
  tumor volume compared to the control group: significantly reduced
[4]; oral 400 mg/kg/day, 32nd day, evaluation by a pathology specialist
  nuclear fission in HE stained tumor tissue: reduced nuclear fission
[5]
  intracellular ROS: significantly increased
[6]; intraperitoneal 400 mg/kg once per day for 30 days, after the 18th day
  tumor volume compared to the D-glucose group: significantly smaller
[6]; oral 100 mg/kg once per day for 30 days, 100 mg/kg
  tumor volume compared to the D-glucose group: no significant difference; also recorded: has not exhibited the anticancer effect
[7]
  intracellular ROS: significantly increased
TXNIP [8]
  TXNIP expression: increases TXNIP expression in a D-allose dose-dependent manner
